Ends that are not written are not given here. spacer = not defined here
Assays:
human MSCs = test: Capture of MSCs from a mixed cell population with peptide on CELLECTION magnetic beads; assay type: cell-based; conditions: starting mixture 38% IM9, 56% U937, 4% MSC
Excerpt: In this experiment, biotinylated cell binding peptide, SEQ ID NO: 16, was attached to CELLECTION magnetic beads. The CELLECTION beads have streptavidin coupled to a magnetic particle through a DNA linker. Three different cell types, human MSCs, IM-9, and U937 cells were differentially labeled with […] dye and mixed in a ratio such that the MSCs represented ˜4% of the starting cell mixture (the percentage of each cell type in the starting mixture was 38% IM9, 56% U937, and 4% MSC). The cell binding peptide, SEQ ID NO: 16, was biotinylated as described herein at Example 2, as was a general cell binding peptide for use as a control peptide in the experiment. Magnetic particles with no peptide attached, as well as magnetic beads having attached either the cell binding peptide, SEQ ID NO: 16, or the control peptide were tested for their ability to capture human MSCs. The starting cell mixture was incubated with magnetic beads having either attached peptide or no peptide, the beads were washed, and the captured cells were released from the beads by DNase treatment. The cells were measured by flow cytometry histograms shown in 18A-18C. The magnetic beads without peptide captured little or no cells (FIG. 18B). The magnetic beads with attached cell binding peptide SEQ ID NO: 16 captured a cell population that was 96% MSCs (FIG. 18C).

HUVECs [1] = test: HUVEC capture and retention on peptide-modified collagen coated 96-well plates ([…]-GLO); assay type: cell-based, human
Description: After washing, 10,000 HUVECs were added per well in serum free medium for 30 min at 37° C. The plates were washed 3 times with PBS containing 2% FBS, and captured cells were detected with […]-GLO (INVITROGEN) using a luminometer and a standard curve. […] For FIG. 21B, the collagen was extracted in gel loading buffer, separated by PAGE, and total protein was stained with SIMPLYBLUE (INVITROGEN). […] Plates with captured HUVECs were prepared as described in FIG. 20A. […]

HUVECs [2] = test: Endothelial cell phenotype and anti-thrombogenic protein expression on peptide-modified collagen; assay type: cell-based, human; conditions: HUVECs cultured 24 hours; t-PA and 6-keto Prostaglandin F1a ELISA, flow cytometry
Description: Once immobilized on a vascular graft, endothelial cells must retain their characteristic properties of promoting endothelialization. Therefore, the phenotype, viability, and anti-thrombogenic protein expression profiles were evaluated for endothelial cells in the presence of collagen modified with the endothelial cell binding peptide SEQ ID NO: 4 (generated according to Example 7 using BS^3 reagent). […] Specifically, HUVECs were plated on SEQ ID NO: 4 peptide-modified collagen, collagen with 10 μM free SEQ ID NO: 4 peptide or collagen alone for 24 hours. Flow cytometry was performed using a BD […], and ELISAs were performed according to manufacturers instructions. (FIGS. 22A & 22B). Tissue-type Plasminogen Activator (t-PA) and 6-keto Prostaglandin F1a protein expression levels secreted in this assay are aligned with other reports on cultured HUVECS (Kimura and Yokoi-Hayashi, Biochim Biophys Acta, 1996, 1310:1-4; Merhi-Soussi et al., J Leukoc Biol, 2000, 68:881-9).

HUVECs [3] = test: HUVEC colonization and proliferation on peptide-modified collagen; assay type: cell-based, human; conditions: 7,000 HUVECs, 48 hours at 37° C.
Description: In 96-well plates 7,000 HUVECs were plated on peptide-modified soluble collagen or unmodified collagen for 48 hours at 37° C. Plates were removed and washed and the remaining attached cells were detected using […]-GLO on a luminometer.

ECFCs = test: Capture of ECFCs in flow on collagen-coated coverslips (parallel plate flow chamber); assay type: cell-based, human; conditions: 2×10^6 ECFC circulated for 2 h at 37° C.
Description: The ability of the collagen modified with endothelial cell binding peptide SEQ ID NO: 4 to capture ECFCs in flow was analyzed as follows. Glass coverslips were coated with unmodified collagen or cell binding peptide modified-collagen and mounted in a polycarbonate parallel plate flow chamber. PBS/10% FBS was circulated through a closed 150 ml system to block the coverslips. Approximately 2×10^6 ECFC were injected into the system and were circulated for 2 h at 37° C. Coverslips were washed in PBS to remove loosely adhering cells, the remaining cells on the coverslips were lysed in CELLTITERGLO (INVITROGEN, CA), and the cells enumerated by luminescence against a standard curve.

HUVECs [4] = test: Retention of HUVECs under shear stress on collagen-coated cover-slips; assay type: cell-based, human
Description: The ability of the collagen modified with endothelial cell binding peptide SEQ ID NO: 4 to retain HUVECs under shear stress was analyzed as follows. Glass cover-slips were coated with peptide conjugated collagen or unmodified collagen and seeded with HUVECs. Coverslips were secured in a polycarbonate slide with six 1 cm diameter wells enabling simultaneous testing of materials. A closed loop peristaltic pump was used to expose the samples to flow conditions for 30 minutes at laminar flow rates up to 12 dynes/cm^2 in PBS containing 2% FBS. The number of cells retained on the cover slip was determined using […]-GLO (INVITROGEN) and a luminometer.

human dermal fibroblasts = test: Fibroblast binding to peptide-modified collagen coated plates ([…]-GLO); assay type: cell-based
Description: The experiment was performed according to the following procedure. Cell-binding peptide (SEQ ID NO: 4) was covalently attached to soluble collagen as described herein at Example 7. 96-well plates were coated with various amounts of unmodified or the peptide-modified collagen (177 μmol peptide/g collagen) over night at 4° C. Unbound collagen was removed and the plates were blocked for 1 h. After washing, 5,000 human dermal fibroblasts were added per well in serum-free medium for 30 min at 37° C. The plates were washed, and bound cells were detected with […]-GLO (PROMEGA) using a luminometer. At 0.0025 μg collagen, fibroblast binding was increased 11-fold for the peptide-modified collagen compared to unmodified collagen (see FIG. 28).

Substance	MSCs in captured cell population (human MSCs)	HUVECs retained versus unmodified collagen after agitation (HUVECs [1]; 1 hour with agitation in PBS containing 2% FBS)	increase in cell retention over unmodified collagen (HUVECs [1]; 10,000 HUVECs per well, serum free medium, 30 min at 37° C.)	endothelial cell phenotype and anti-thrombogenic protein secretion (HUVECs [2])	HUVEC colonization and proliferation versus unmodified collagen (HUVECs [3])	cells captured in flow versus unmodified collagen (ECFCs)	cells captured versus unmodified collagen (HUVECs [4]; HUVECs, 30 minutes, laminar flow up to 12 dynes/cm^2)	effect of shear stress on cell capture (HUVECs [4]; laminar flow up to 12 dynes/cm^2, 30 minutes)	fibroblast binding increase compared to unmodified collagen (human dermal fibroblasts; 0.0025 μg collagen, 5,000 human dermal fibroblasts, 30 min at 37° C.)	fibroblast binding at higher concentrations of collagen (human dermal fibroblasts; data not shown)
SSFRFGPLGTWNYPSTDNAE (also: biotin (position not given here)) [SEQ ID NO: 16, tested biotinylated]	96%	–	–	–	–	–	–	–	–	–
peptide-modified collagen: soluble bovine type I collagen with SEQ ID NO: 4 covalently attached via BS^3 crosslinking reagent (SSFWDVCQGDGTCYGGGSR-{spacer-Lys}; cysteine pairing not given here; reading uncertain; also: conjugated to soluble bovine type I collagen via BS3 (site not given here))	–	7 fold	3 fold	maintained their endothelial cell phenotype and their ability to secrete anti-thrombogenic proteins	colonize and proliferate equally	about 20 fold	about 3 fold	did not significantly affect cell capture	11 fold	Increased cell binding

From patent publication US20110117168A1, “METHODS AND COMPOSITIONS FOR SOFT TISSUE REPAIR” (AFFINERGY, INC., priority 2009, published 2011)
